From patent US20160244437A1, “SUBSTITUTED PHENYLALANINE DERIVATIVES” (BAYER PHARMA AKTIENGESELLSCHAFT, priority 2013, published 2016)
Where a name gives a salt, the structure may show the parent alone.

Key:
[1] = target: T1, human factor XIa (Homo sapiens, UniProt P03951); test: Measurement of FXIa inhibition (fluorogenic peptide substrate Boc-Glu(OBzl)-Ala-Arg-AMC); type: biochemical; conditions: factor XIa from Kordia 0.45 nM, 15 min pre-incubation, 30 min at 22° C., fluorescence
T1 construct: purchased Kordia
Method: The factor XIa inhibition of the substances according to the invention is determined using a biochemical test system which utilizes the reaction of a peptidic factor XIa substrate to determine the enzymatic activity of human factor XIa. Here, factor XIa cleaves from the peptic factor XIa substrate the C-terminal aminomethylcoumarin (AMC), the fluorescence of which is measured. The determinations are carried out in microtitre plates.
Test substances are dissolved in dimethyl sulphoxide and serially diluted in dimethyl sulphoxide (3000 μM to 0.0078 μM; resulting final concentrations in the test: 50 μM to 0.00013 μM). In each case 1 μl of the diluted substance solutions is placed into the wells of white microtitre plates from Greiner (384 wells). Subsequently, the following are added successively: 20 μl of assay buffer (50 mmol/l Tris buffer pH 7.4; 100 mmol/l sodium chloride; 5 mmol/l calcium chloride; 0.1% bovine serum albumin) and 20 μl of factor XIa from Kordia (0.45 nM in assay buffer). After 15 min of incubation, the enzyme reaction is started by addition of 20 μl of the factor XIa substrate Boc-Glu(OBzl)-Ala-Arg-AMC dissolved in assay buffer (10 μM in assay buffer) from Bachem, the mixture is incubated at room temperature (22° C.) for 30 min and fluorescence is then measured (excitation: 360 nm, emission: 460 nm). The measured emissions of the test batches with test substance are compared to those of control batches without test substance (only dimethyl sulphoxide instead of test substance in dimethyl sulphoxide), and IC50 values are calculated from the concentration/activity relationships.

[2] = system: human and animal plasma; test: Determination of anticoagulatory activity: activated partial thromboplastin time (aPTT) in plasma; conditions: concentration of test substance which brings about a 1.5-fold extension of the aPTT; plasma in vitro, C.K. Prest kit
Method: The anticoagulatory activity of the test substances is determined in vitro in human and animal plasma (for example mouse, rat, rabbit, pig and dog plasma). To this end, blood is drawn off in a mixing ratio of sodium citrate/blood of 1:9 using a 0.11 molar sodium citrate solution as receiver. Immediately after the blood has been drawn off, it is mixed thoroughly and centrifuged at about 4000 g for 15 minutes. The supernatant is pipetted off.
The activated partial thromboplastin time (aPTT) is determined in the presence of varying concentrations of test substance or the corresponding solvent using a commercial test kit (C.K. Prest from Diagnostica Stago). The test compounds are incubated with the plasma and the PTT reagent (cephalin, kaolin) at 37° C. for 3 minutes. Coagulation is then started by addition of a 25 mM aqueous calcium chloride solution, and the time when coagulation occurs is determined. The concentration of test substance which brings about a 1.5-fold extension of the aPTT is determined.

T1 sequence (P03951 388-625 limits assumed): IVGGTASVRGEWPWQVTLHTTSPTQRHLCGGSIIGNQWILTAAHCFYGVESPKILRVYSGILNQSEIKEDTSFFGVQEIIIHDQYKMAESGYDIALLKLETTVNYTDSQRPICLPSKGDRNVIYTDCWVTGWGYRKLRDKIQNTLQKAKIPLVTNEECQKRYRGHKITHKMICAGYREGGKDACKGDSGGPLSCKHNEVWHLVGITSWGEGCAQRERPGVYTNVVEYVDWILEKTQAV
T1 sequence (P03951 19-387 partner limits assumed): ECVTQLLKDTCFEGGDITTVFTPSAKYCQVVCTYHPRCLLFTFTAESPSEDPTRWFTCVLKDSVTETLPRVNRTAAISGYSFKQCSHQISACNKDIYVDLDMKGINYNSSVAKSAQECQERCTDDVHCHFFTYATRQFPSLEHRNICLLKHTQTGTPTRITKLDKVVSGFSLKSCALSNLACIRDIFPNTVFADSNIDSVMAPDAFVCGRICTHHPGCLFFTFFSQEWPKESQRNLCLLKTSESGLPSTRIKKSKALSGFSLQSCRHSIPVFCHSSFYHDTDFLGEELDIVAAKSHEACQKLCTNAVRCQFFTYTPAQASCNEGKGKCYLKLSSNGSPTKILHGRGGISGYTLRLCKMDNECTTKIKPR

Row | IC50 [1] | SMILES | aPTT [2]
1 | 0.4 nM | Cc1ccc(S(=O)(=O)NCc2ccccc2)cc1-c1cccc(C[C@H](NC(=O)[C@H]2CC[C@H](CN)CC2)C(=O)Nc2ccc(-c3nnn[nH]3)cc2)c1 [Example 1, trans-4-(Aminomethyl)-N-[(2S)-3-[5′-(benzylsulphamoyl)-2′-methylbiphenyl-3-yl]-1-oxo-1-{[4-(1H-tetrazol-5-yl)phenyl]amino}propan-2-yl]cyclohexanecarboxamide hydrochloride] | 0.1 µmol/L
2 | 1.1 nM | Cc1ccc(S(=O)(=O)N2CCCC2)cc1-c1cccc(C[C@H](NC(=O)[C@H]2CC[C@H](CN)CC2)C(=O)Nc2ccc(-c3nnn[nH]3)cc2)c1 [Example 2, trans-4-(Aminomethyl)-N-[(2S)-3-[2′-methyl-5′-(pyrrolidin-1-ylsulphonyl)biphenyl-3-yl]-1-oxo-1-{[4-(1H-tetrazol-5-yl)phenyl]amino}propan-2-yl]cyclohexanecarboxamide hydrochloride] | 0.08 µmol/L
3 | 1.5 nM | Cc1ccc(S(=O)(=O)N(C)C)cc1-c1cccc(C[C@H](NC(=O)[C@H]2CC[C@H](CN)CC2)C(=O)Nc2ccc(-c3nnn[nH]3)cc2)c1 [Example 4, trans-4-(Aminomethyl)-N-[(2S)-3-[5′-(dimethylsulphamoyl)-2′-methylbiphenyl-3-yl]-1-oxo-1-{[4-(1H-tetrazol-5-yl)phenyl]amino}propan-2-yl]cyclohexanecarboxamide hydrochloride] | 0.21 µmol/L
4 | 3.4 nM | NC[C@H]1CC[C@H](C(=O)N[C@@H](Cc2cccc(-c3cccc(S(N)(=O)=O)c3)c2)C(=O)Nc2ccc(-c3nnn[nH]3)cc2)CC1 [Example 5, trans-4-(Aminomethyl)-N-[(2S)-1-oxo-3-(3′-sulphamoylbiphenyl-3-yl)-1-{[4-(1H-tetrazol-5-yl)phenyl]amino}propan-2-yl]cyclohexanecarboxamide hydrochloride] | 0.23 µmol/L
5 | 1.9 nM | NC[C@H]1CC[C@H](C(=O)N[C@@H](Cc2cccc(-c3cccc(S(=O)(=O)NC4CC4)c3)c2)C(=O)Nc2ccc(-c3nnn[nH]3)cc2)CC1 [Example 6, trans-4-(Aminomethyl)-N-[(2S)-3-[3′-(cyclopropylsulphamoyl)biphenyl-3-yl]-1-oxo-1-{[4-(1H-tetrazol-5-yl)phenyl]amino}propan-2-yl]cyclohexanecarboxamide hydrochloride] | 0.27 µmol/L
6 | 1.7 nM | Cc1cc(S(=O)(=O)N(C)C)ccc1-c1cccc(C[C@H](NC(=O)[C@H]2CC[C@H](CN)CC2)C(=O)Nc2ccc(-c3nnn[nH]3)cc2)c1 [Example 7, trans-4-(Aminomethyl)-N-[(2S)-3-[4′-(dimethylsulphamoyl)-2′-methylbiphenyl-3-yl]-1-oxo-1-{[4-(1H-tetrazol-5-yl)phenyl]amino}propan-2-yl]cyclohexanecarboxamide hydrochloride] | 0.33 µmol/L
7 | 3.8 nM | COc1ccc(-c2cccc(C[C@H](NC(=O)[C@H]3CC[C@H](CN)CC3)C(=O)Nc3ccc(-c4nnn[nH]4)cc3)c2)cc1S(=O)(=O)N1CCOCC1 [Example 8, trans-4-(Aminomethyl)-N-[(2S)-3-[4′-methoxy-3′-(morpholin-4-ylsulphonyl)biphenyl-3-yl]-1-oxo-1-{[4-(1H-tetrazol-5-yl)phenyl]amino}propan-2-yl]cyclohexanecarboxamide hydrochloride] | 0.41 µmol/L
8 | 9.6 nM | Cc1ccc(S(=O)(=O)N2CCOCC2)cc1-c1cccc(C[C@H](NC(=O)[C@H]2CC[C@H](CN)CC2)C(=O)Nc2ccc(-c3n[nH]c(=O)[nH]3)cc2)c1 [Example 9, trans-4-(Aminomethyl)-N-[(2S)-3-[2′-methyl-5′-(morpholin-4-ylsulphonyl)biphenyl-3-yl]-1-oxo-1-{[4-(5-oxo-4,5-dihydro-1H-1,2,4-triazol-3-yl)phenyl]amino}propan-2-yl]cyclohexanecarboxamide hydrochloride] | 0.14 µmol/L
9 | 13 nM | Cc1ccc(S(=O)(=O)N2CCOCC2)cc1-c1cccc(C[C@H](NC(=O)[C@H]2CC[C@H](CN)CC2)C(=O)Nc2ccc3[nH]c(=O)[nH]c3c2)c1 [Example 10, trans-4-(Aminomethyl)-N-{(2S)-3-[2′-methyl-5′-(morpholin-4-ylsulphonyl)biphenyl-3-yl]-1-oxo-1-[(2-oxo-2,3-dihydro-1H-benzimidazol-5-yl)amino]propan-2-yl}cyclohexanecarboxamide hydrochloride] | 0.23 µmol/L
10 | 7.9 nM | Cc1ccc(S(=O)(=O)N2CCCC2)cc1-c1cccc(C[C@H](NC(=O)[C@H]2CC[C@H](CN)CC2)C(=O)Nc2ccc3[nH]c(=O)[nH]c3c2)c1 [Example 11, trans-4-(Aminomethyl)-N-{(2S)-3-[2′-methyl-5′-(pyrrolidin-1-ylsulphonyl)biphenyl-3-yl]-1-oxo-1-[(2-oxo-2,3-dihydro-1H-benzimidazol-5-yl)amino]propan-2-yl}cyclohexanecarboxamide hydrochloride] | 0.3 µmol/L
11 | 3.2 nM | Cc1ccc(S(=O)(=O)NCc2ccccc2)cc1-c1cccc(C[C@H](NC(=O)[C@H]2CC[C@H](CN)CC2)C(=O)Nc2ccc3[nH]c(=O)[nH]c3c2)c1 [Example 12, trans-4-(Aminomethyl)-N-{(2S)-3-[5′-(benzylsulphamoyl)-2′-methylbiphenyl-3-yl]-1-oxo-1-[(2-oxo-2,3-dihydro-1H-benzimidazol-5-yl)amino]propan-2-yl}cyclohexanecarboxamide hydrochloride] | 0.3 µmol/L
12 | 9.2 nM | Cc1ccc(S(=O)(=O)NCc2ccccc2)cc1-c1cccc(C[C@H](NC(=O)[C@H]2CC[C@H](CN)CC2)C(=O)Nc2ccc(-c3n[nH]c(=O)[nH]3)cc2)c1 [Example 13, trans-4-(Aminomethyl)-N-[(2S)-3-[5′-(benzylsulphamoyl)-2′-methylbiphenyl-3-yl]-1-oxo-1-{[4-(5-oxo-4,5-dihydro-1H-1,2,4-triazol-3-yl)phenyl]amino}propan-2-yl]cyclohexanecarboxamide hydrochloride] | 0.47 µmol/L
13 | 4.8 nM | Cc1ccc(C(=O)NC2CCNCC2)cc1-c1cccc(C[C@H](NC(=O)[C@H]2CC[C@H](CN)CC2)C(=O)Nc2ccc(-c3nnn[nH]3)cc2)c1 [Example 14, 3′-[(2S)-2-({[trans-4-(Aminomethyl)cyclohexyl]carbonyl}amino)-3-oxo-3-{[4-(1H-tetrazol-5-yl)phenyl]amino}propyl]-6-methyl-N-(piperidin-4-yl)biphenyl-3-carboxamide hydrochloride] | 0.15 µmol/L
14 | 5.5 nM | Cc1ccc(C(=O)NC2C3CNCC32)cc1-c1cccc(C[C@H](NC(=O)C2CCC(CN)CC2)C(=O)Nc2ccc(-c3nnn[nH]3)cc2)c1 (stereo partly drawn) [Example 16, 3′-[(2S)-2-({[trans-4-(Aminomethyl)cyclohexyl]carbonyl}amino)-3-oxo-3-{[4-(1H-tetrazol-5-yl)phenyl]amino}propyl]-N-(3-azabicyclo[3.1.0]hex-6-yl)-6-methylbiphenyl-3-carboxamide hydrochloride] | 0.25 µmol/L
15 | 4.1 nM | Cc1ccc(C[C@H](NC(=O)[C@H]2CC[C@H](CN)CC2)C(=O)Nc2ccc(-c3nnn[nH]3)cc2)cc1-c1cccc(C(=O)N2CCOCC2)c1 [Example 17, trans-4-(Aminomethyl)-N-[(2S)-3-[6-methyl-3′-(morpholin-4-ylcarbonyl)biphenyl-3-yl]-1-oxo-1-{[4-(1H-tetrazol-5-yl)phenyl]amino}propan-2-yl]cyclohexanecarboxamide hydrochloride] | 0.19 µmol/L
16 | 5.7 nM | COCCOCCOCCNC(=O)c1cccc(-c2cc(C[C@H](NC(=O)[C@H]3CC[C@H](CN)CC3)C(=O)Nc3ccc(-c4nnn[nH]4)cc3)ccc2C)c1 [Example 18, 5′-[(2S)-2-({[trans-4-(Aminomethyl)cyclohexyl]carbonyl}amino)-3-oxo-3-{[4-(1H-tetrazol-5-yl)phenyl]amino}propyl]-N-{2-[2-(2-methoxyethoxy)ethoxy]ethyl}-2′-methylbiphenyl-3-carboxamide hydrochloride] | 0.4 µmol/L
17 |  | Cc1cnccc1-c1cccc(C[C@H](NC(=O)[C@H]2CC[C@H](CN)CC2)C(=O)Nc2ccc(-c3n[nH]c(=O)[nH]3)cc2)c1 [Example 89, N-alpha-{[trans-4-(Aminomethyl)cyclohexyl]carbonyl}-3-(3-methylpyridin-4-yl)-N-[4-(5-oxo-4,5-dihydro-1H-1,2,4-triazol-3-yl)phenyl]-L-phenylalaninamide hydrochloride] | 0.46 µmol/L
